According to PubChem BioAssay (NCI):
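96-well plates; 48 h exposure; 5 concentrations. Endpoints by linear interpolation between flanking doses. Not reached: highest tested concentration assigned. GI50 marks 50% less growth. TGI marks complete inhibition of growth.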

Tests used:
Experiment in all cases: inhibition of tumour cell growth, NCI panel, 48 h
DLD-1 colon = system: DLD-1 colon
ACHN renal = system: ACHN renal
SF-268 CNS = system: SF-268 CNS
SK-OV-3 ovarian = system: SK-OV-3 ovarian
CAKI-1 renal = system: CAKI-1 renal
SNB-78 CNS = system: SNB-78 CNS
HOP-62 NSCLC = system: HOP-62 NSCLC
SK-MEL-2 melanoma = system: SK-MEL-2 melanoma
SN12C renal = system: SN12C renal
RPMI-8226 leukemia = system: RPMI-8226 leukemia

Compound | TGI (DLD-1 colon) [µM] | TGI (ACHN renal) [µM] | TGI (SF-268 CNS) [µM] | TGI (SK-OV-3 ovarian) [µM] | TGI (CAKI-1 renal) [µM] | TGI (SNB-78 CNS) [µM] | TGI (HOP-62 NSCLC) [µM] | TGI (SK-MEL-2 melanoma) [µM] | TGI (SN12C renal) [µM] | TGI (RPMI-8226 leukemia) [µM] | GI50 (RPMI-8226 leukemia) [µM] | GI50 (ACHN renal) [µM] | GI50 (SF-268 CNS) [µM] | GI50 (SK-OV-3 ovarian) [µM] | GI50 (CAKI-1 renal) [µM] | GI50 (HOP-62 NSCLC) [µM] | GI50 (SK-MEL-2 melanoma) [µM] | GI50 (SN12C renal) [µM]
CN(C)CCNC(=O)c1cccc2nc3ccc4cccnc4c3nc12 | 8.36 | 3.27 | 3.13 | 8.53 | 6.37 | 11.3 | 1.86 | 2.11 | 4.31 |  |  |  |  |  |  |  |  | 
COC1=CC(=O)C(Br)=CC1=O | > 100 |  | 33.8 | > 100 | 32.4 |  | > 100 | 45.7 | 33.3 | 50.6 |  |  |  |  |  |  |  | 
COC1=CC(=O)C2C(C1=O)[C@@H]1c3ccccc3OC(C)(C)[C@H]21 (some centres not stated) | 34 | 27.2 | 88.6 | > 100 | 31 | 41.5 | > 100 | 71.2 |  | 72.2 |  |  |  |  |  |  |  | 
Cc1cc(C)nc(NS(=O)(=O)c2ccc(Nc3c4ccccc4nc4c(C(=O)Nc5ccc(S(=O)(=O)Nc6cc(C)on6)cc5)ccc(Cl)c34)cc2)n1 | 33.3 | > 100 | > 100 | > 100 |  | > 100 | 42.5 |  | 63 | 57.8 |  |  |  |  |  |  |  | 
COc1ccc2c3c(c(C(=O)O)oc13)CCC2 | > 100 | > 100 | > 100 | > 100 |  | > 100 | > 100 | > 100 | > 100 | > 100 |  |  |  |  |  |  |  | 
CCCN(CCC)CCc1cc(C(C)=O)n(S(=O)(=O)c2ccc(C)cc2)c1 | > 100 | > 100 | > 100 | > 100 | > 100 | > 100 | > 100 | > 100 | > 100 | > 100 |  |  |  |  |  |  |  | 
O=S(=O)(c1ccccc1)c1nccs1 | > 100 | > 100 | > 100 | > 100 | > 100 | > 100 | > 100 | > 100 | > 100 | > 100 |  |  |  |  |  |  |  | 
COc1cc2c(c(O)c1C)C(=O)CC(c1ccccc1)O2 (configuration not stated) | > 100 | > 100 | > 100 | > 100 | > 100 | > 100 | > 100 | 95.4 | > 100 |  |  |  |  |  |  |  |  | 
Cc1cc(Br)cc(C)c1NC(=O)C(=O)C(C(=O)c1ccncc1)C1OC(=O)c2ccccc21 (configuration not stated) | > 100 | > 100 | > 100 | > 100 | > 100 | > 100 | > 100 |  | > 100 | > 100 |  |  |  |  |  |  |  | 
COc1cccc2c1C(=O)c1c(O)c3c(c(O)c1C2=O)C[C@@](O)(C(C)=O)C[C@@H]3OC1CC([N+]([O-])(Cc2ccccc2)Cc2ccccc2)C(O)C(C)O1 (some centres not stated) | 3.22 | 2.73 |  | 17.2 | 2.47 |  | 2.98 | 3.46 | 2.34 |  |  |  |  |  |  |  |  | 
O=c1nc(NC(c2ccccc2)(c2ccccc2)c2ccccc2)ccn1CCCl | > 100 | 99 | 34.1 |  |  | 86.7 | 40.9 | 29.9 | 33 | 55.7 |  |  |  |  |  |  |  | 
CC(N)Cc1ccc(Cl)cc1 (configuration not stated) | > 100 | > 100 | > 100 | > 100 | > 100 |  | > 100 | > 100 | > 100 | > 100 |  |  |  |  |  |  |  | 
CCO/C(CCn1[nH]c(=O)c(Cl)c(Cl)c1=O)=N\NC(=O)C(=O)NN | > 100 | > 100 | > 100 | > 100 | > 100 |  | > 100 | > 100 | > 100 | > 100 |  |  |  |  |  |  |  | 
Nc1ncn(C2OC(COP(=O)(O)O)C(O)C2O)c(=O)n1 (configuration not stated) |  | > 100 | > 100 | > 100 | > 100 |  | > 100 | > 100 | > 100 | > 100 |  |  |  |  |  |  |  | 
Cc1cc(C(=O)Nc2cc(Oc3ccc4nc(NC(=O)C5CC5)cn4n3)ccc2C)n(C)n1 |  | > 10 | > 10 | > 10 | > 10 |  | > 10 | > 10 | > 10 | > 10 | > 10 | > 10 | > 10 | > 10 | > 10 | > 10 | > 10 | > 10
COC12C=C/C(=C(/C(=O)OCCSc3ccnn3C)C(=O)CCCCCCCCC3(OC)C=C/C(=C(/C(=O)OCCSc4ccnn4C)C(=O)CCCCCCCC1)O3)O2 |  | > 32.5 | > 32.5 | 24.9 | > 32.5 |  | 2.81 | 2.8 | 5.64 | 2.65 | 0.895 | 1.07 | 1.15 | 1.66 | 1.18 | 0.95 | 0.928 | 1.05
O=c1cc(-c2ccccc2)oc2ccc(OC/C(=N/O)c3ccc(F)cc3)cc12 |  | > 50 | 14.3 | 30.7 | 16.2 |  | > 50 | > 50 | 14.5 | 14.9 | 3 | 10.3 | 3.62 | 4.9 | 3.57 | 8.79 | 12.3 | 6.59
CC(CN(C)C)S(=O)(=O)c1ccc(-c2cnc(N)c(C(=O)Nc3ccccc3)n2)cc1 (configuration not stated) |  | 16.9 | 39.8 | > 54.5 | > 50.8 |  | 36.2 | 17.6 | 27 | 48.9 | 13.8 | 1.35 | 6.8 | 6.04 | 3.02 | 8.16 | 4.31 | 5.09
O=C1CSC(c2ccc(-c3nc4ccccc4[nH]3)cc2)=N1 |  | > 50 | > 50 | > 50 | > 50 |  | > 50 | > 50 | > 50 | > 50 | 11.7 | 24.7 | 22.4 | > 50 | > 50 | > 50 | 19 | > 50
